Measured values reported in patent publication US10828301B2, “2,4-pyrimidinediamine compounds and their uses” (Rigel Pharmaceuticals, Inc, priority 2002, dated 2020).
Where two headings read alike, the source gives them in different places.

Tests used:
Type in all cases: cell-based
B-cell line BJAB = assay: BJAB (B-cell) toxicity, light scatter; details: Homo sapiens; BJAB B-cells, flow cytometric light scatter; read-out: Toxicity BJAB Light Scat.
Experimental: The B-cell line BJAB was cultured in log phase in RPMI1640+10% heat-inactivated fetal bovine serum, lx L-glutamine, lx penicillin, lx […] and 1× beta-mercaptoethanol at 37° C., 5% CO2. First, BJABs were harvested, spun and resuspended in culture medium to a concentration of 7.7×10^5 cells/mL. 65 uL cells were mixed with 65 uL compound, in duplicate and in the presence of 0.1% DMSO in a V-bottomed 96-well tissue culture plate. Cells were incubated with compound at various dilutions at 37° C., 5% CO2. Toxicity was assessed by flow cytometric analysis of cellular light scatter.

Jurkat cells = assay: Jurkat (T-cell) toxicity, light scatter; details: Homo sapiens, 18-24 hr, flow cytometric light scatter, read-out: Toxicity Jurkat Light Scat.
Experimental: Dilute Jurkat cells to 2×10^5 cells/ml in complete RPMI (10% heat-inactivated fetal bovine serum) media and incubate at 37° C., 5% CO2 for 18 hours. Add 65 ul cells at 7.7×10^5 cells/ml to a 96-well V-bottom plate (TC-treated, Costar) containing 65 ul 2× compound (final vehicle concentration is 0.5% DMSO, 1.5% MeOH). Mix, incubate plates for 18-24 hr at 37° C., 5% CO2. Toxicity was assessed by flow cytometric analysis of cellular light scatter

[1] = test system: cultured human mast cells (CHMC); assay: CHMC low cell density ionomycin activation: tryptase assay; details: Homo sapiens, Mast cell, Low Density CHMC, ionomycin activation
[2] = test system: cultured human mast cells (CHMC); assay: CHMC low cell density IgE activation: tryptase and LTC4 assays; details: Homo sapiens, Mast cell, Low Density CHMC, anti-IgE activation
Summary of the method: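 Degranulation measured after 30 min anti-IgE challenge at 37° C of CHMC plated at 1000-1500 cells/well following 1 h preincubation. Readouts: LTC4 by ELISA on donor-specific diluted supernatants, and tryptase activity from a 30 min room-temperature substrate reaction.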

[3] = test system: basophils in whole human peripheral blood; assay: Basophil ionomycin activation: histamine release assay
Experimental: Assays for ionomycin-induced basophil cell degranulation were carried out as described for the Basophil IgE or Dustmite Activation Assay (Section 6.4.6, supra), with the exception that following incubation with compound, cells were stimulated with 20 μl of 2 μM ionomycin.

[4] = test system: basophils in whole human peripheral blood; assay: Basophil IgE activation: histamine release assay; details: anti-IgE activation
Experimental: The basophil activation assay was carried out using whole human peripheral blood from donors allergic to dust mites with the majority of the red blood cells removed by dextran sedimentation. Human peripheral blood was mixed 1:1 with 3% dextran T500 and RBCs were allowed to settle for 20-25 min. The upper fraction was diluted with 3 volumes of D-PBS and cells were spun down for 10 min at 1500 rpm, RT. Supernatant was aspirated and cells were washed in an equal volume MT-buffer. Finally, cells were resuspended in MT-buffer containing 0.5% DMSO in the original blood volume. 80 uL cells were mixed with 20 uL compound in the presence of 0.5% DMSO, in triplicate, in a V-bottom 96-well tissue culture plate. A dose range of 8 compound concentrations was tested resulting in a 10-point dose response curve including maximum (stimulated) and minimum (unstimulated) response. […] The cells were stimulated for 30 minutes at 37° C., 5% CO2. The plate was spun for 10 min at 1500 rpm at room temperature and 80 uL the supernatant was harvested for histamine content analysis using the histamine ELISA kit supplied by Immunotech. The ELISA was performed according to supplier's instructions.

[5] = test system: ionophore-induced degranulation of mast and/or basophil cells; assay: Ionophore (ionomycin or A23187)-induced degranulation counter screen; details: high density BMMC, ionomycin activation, hexosaminidase release, read-out: BMMC Ionomycin Hexos. IC50
Description: In addition to the FcεRI or FcγRI degranulation pathways discussed above, degranulation of mast and/or basophil cells can be induced by other agents. For example, ionomycin, a calcium ionophore that bypasses the early FcεRI or FcγRI signal transduction machinery of the cell, directly induces a calcium flux that triggers degranulation. Referring again to FIG. 2, activated PLCγ initiates pathways that lead to, among other things, calcium ion mobilization and subsequent degranulation. As illustrated, this Ca^2+ mobilization is triggered late in the FcεRI signal transduction pathway. […] Other ionophores that induce degranulation in this manner include A23187. The ability of granulation-inducing ionophores such as ionomycin to bypass the early stages of the FcεRI and/or FcγRI signaling cascades may be used as a counter screen to identify active compounds of the invention that specifically exert their degranulation-inhibitory activity by blocking or inhibiting the early FcεRI or FcγRI signaling cascades, as discussed above.
Assays suitable for determining the IC50 of ionophore-induced degranulation include any of the previously-described degranulation assays, with the modification that the cells are stimulated or activated with a degranulation-inducing calcium ionophore such as ionomycin or A23187 (A.G. Scientific, San Diego, Calif.) instead of anti-IgE antibodies or an IgE-specific allergen. Specific assays for assessing the ability of a particular 2,4-pyrimidinediamine compound of the invention to inhibit ionophore-induced degranulation are provided in the Examples section.

[6] = test system: bone marrow derived mast cells (BMMC); assay: BMMC high cell density IgE activation: degranulation (hexosiminidase, histamine), leukotriene (LTC4) and cytokine (TNFalpha, IL-6) assays; details: Mus musculus, anti-IgE activation, hexosaminidase release, read-out: BMMC anti-IgE hexos IC50
Experimental: After sensitizing, cells are counted, pelleted (1000 rpm, 5-10 minutes), and resuspended at 1-3×10^6 cells/ml in MT buffer. Add 100 ul of cell suspension to each well and 100 ul of compound dilutions. The final vehicle concentration is 0.5% DMSO. Incubate at 37° C. (5% CO2) for 1 hour. After 1 hour of compound treatment, stimulate cells with 6× stimulus (60 ng/ml DNP-BSA). Mix wells with the cells and allow plates to incubate at 37° C. (5% CO2) for one hour. After 1 hour incubation, pellet cells (10 minutes, 1000 RPM) and collect 200 ul per well of the supernatant, being careful not to disturb pellet, and transfer to a clean tube or 96-well plate. Place the supernatant plate on ice. During the 4-5 hour step (see next) perform the hexosiminidase assay. Resuspend cell pellet in 240 ul WEI-conditioned media containing 0.5% DMSO and corresponding concentration of compound. Incubate BMMC cells for 4-5 hours at 37° C. (5% CO2). After incubation, pellet cells (1000 RPM, 10 minutes) and collect 225 ul per well and place in −80° C. until ready to perform ELISAS. ELISAS are performed on appropriately diluted samples (determined empirically for each donor cell population so that the sample measurement falls within the standard curve) following the supplier's instructions.
Add 50 uL of BMMC cell supernatant (see above) to the hexoseaminidase substrate, place at 37° C. for 30 minutes and read the plate at 5, 10, 15, and 30 minutes on a spectrophotometer.

[7] = tryptase readout, read-out: CHMC Ionomycin Tryptase
[8] = LTC4 readout, read-out: CHMC anti-IgE LTC4
[9] = tryptase readout, read-out: CHMC anti-IgE Tryptase
[10] = hexosaminidase readout, read-out: CHMC Ionomycin Hexos.
[11] = hexosaminidase readout, read-out: CHMC anti-IgE Hexos.

SMILES	IC50 [1, 7] [µM]	IC50 [2, 9] [µM]	IC50 ([3]; Homo sapiens) [µM]	IC50 ([4]; Homo sapiens) [µM]	IC50 ([5]; Mus musculus) [µM]	IC50 [6] [µM]	further results
Cc1cccc(Nc2ncc(F)c(Nc3cccc(C)c3)n2)c1 [Compound R092788, N2,N4-bis(3-methylphenyl)-5-fluoro-2,4-pyrimidinediamine]							IC50 (B-cell line BJAB): > 10 µM; IC50 (Jurkat cells): > 10 µM
Oc1cccc(Nc2ncc(Br)c(Nc3cccc(O)c3)n2)c1 [Compound R925778, N2,N4-Bis(3-hydroxyphenyl)-5-bromo-2,4-pyrimidinediamine]	> 10	0.225					IC50 (B-cell line BJAB): > 10 µM; IC50 [2, 8]: 0.18 µM; IC50 (Jurkat cells): > 10 µM
Oc1cccc(Nc2nc(Nc3ccc4c(c3)OCCO4)ncc2Br)c1 [Compound R925797, 5-Bromo-N2-(3,4-ethylenedioxyphenyl)-N4-(3-hydroxyphenyl)-2,4-pyrimidinediamine]	> 10	0.85					IC50 (B-cell line BJAB): > 10 µM; IC50 [2, 8]: 0.28 µM; IC50 (Jurkat cells): > 10 µM
Fc1cnc(Nc2ccc(C(F)(F)F)cc2)nc1Nc1ccc(C(F)(F)F)cc1 [Compound R926016, N2,N4-Bis(4-trifluoromethylphenyl)-5-fluoro-2,4-pyrimidinediamine]			> 10	> 10	> 10	> 10	
COc1ccc(Nc2ncc(F)c(Nc3ccc(OC)cc3)n2)cc1 [Compound R926017, N2,N4-Bis(4-methoxyphenyl)-5-fluoro-2,4-pyrimidinediamine]			> 10	0.53	9.6	1.4	IC50 [1, 10]: > 10 µM; IC50 [2, 11]: 1.43 µM
Fc1cc(Nc2ncc(F)c(Nc3ccc(C(F)(F)F)c(F)c3)n2)ccc1C(F)(F)F [Compound R926018, N2,N4-Bis(3-fluoro-4-trifluoromethylphenyl)-5-fluoro-2,4-pyrimidinediamine]			10	> 10	> 10	8.5	
Fc1cnc(Nc2ccc3c(c2)OC(F)(F)C(F)(F)O3)nc1Nc1ccc2c(c1)OC(F)(F)C(F)(F)O2 [Compound R926037, N2,N4-Bis(3,4-tetrafluoroethylendioxyphenyl)-5-fluoro-2,4-pyrimidinediamine]							IC50 [3]: > 10 µM; IC50 [4]: > 10 µM; IC50 [5]: > 10 µM
Fc1cnc(Nc2cccc(OC(F)(F)F)c2)nc1Nc1cccc(OC(F)(F)F)c1 [Compound R926038, N2,N4-Bis(3-trifluoromethoxyphenyl)-5-fluoro-2,4-pyrimidinediamine]			> 10	> 10	> 10	> 10	
Fc1cnc(Nc2ccc(Cl)c(C(F)(F)F)c2)nc1Nc1ccc(Cl)c(C(F)(F)F)c1 [Compound R926039, N2,N4-Bis(4-chloro-3-trifluoromethylphenyl)-5-fluoro-2,4-pyrimidinediamine]			> 10	> 10	> 10	> 10	
CCOc1ccc(Nc2cc(C(=O)OC)nc(Nc3ccc(OCC)cc3)n2)cc1 [Compound R926058, N2,N4-Bis(4-ethoxyphenyl)-6-methoxycarbonyl-2,4-pyrimidinediamine]			> 10	> 10	> 10	> 10	
CN(C)c1ccc(Nc2ncc(F)c(Nc3ccc(N(C)C)cc3)n2)cc1 [Compound R926086, N2,N4-Bis[4-(N,N-dimethylamino)phenyl]-5-fluoro-2,4-pyrimidinediamine]			> 10	2.5	7.3	2.8	
Fc1cnc(Nc2ccc(Cl)cc2)nc1Nc1ccc(Cl)cc1 [Compound R926206, N2,N4-Bis(4-chlorophenyl)-5-fluoro-2,4-pyrimidinediamine]			> 10	> 10	8.6	6.6	
Fc1cnc(Nc2cccc(Cl)c2)nc1Nc1cccc(Cl)c1 [Compound R926209, N2,N4-Bis(3-chlorophenyl)-5-fluoro-2,4-pyrimidinediamine]			> 10	> 10	9.1	10	
CCOc1ccc(Nc2ncc(F)c(Nc3ccc4c(c3)OCCO4)n2)cc1 [Compound R926211, N2-(4-Ethoxyphenyl)-N4-(3,4-ethylenedioxyphenyl)-5-fluoro-2,4-pyrimidinediamine]	9.8	1.3	> 10	1.55	> 10	3.9	IC50 [1, 10]: > 10 µM; IC50 [2, 11]: 2.7 µM
COc1ccc(Nc2ncc(F)c(Nc3ccc4c(c3)OCCO4)n2)cc1OC [Compound R926212, N2-(3,4-Dimethoxyphenyl)-N4-(3,4-ethylenedioxyphenyl)-5-fluoro-2,4-pyrimidinediamine]	> 10	0.654	> 10	0.5	5	0.5	IC50 [2, 8]: 0.45 µM
CCOc1ccc(Nc2nc(Nc3ccc4c(c3)OCCO4)ncc2F)cc1 [Compound R926213, N4-(4-Ethoxyphenyl)-N2-(3,4-ethylenedioxyphenyl)-5-fluoro-2,4-pyrimidinediamine]	5.5	1.64	> 10	1.75			
